# Test results from patent US9051351B2, “Hepatocyte growth factor mimics as therapeutic agents” (Washington State University, priority 2011, dated 2015).
# Entries after “also recorded” stand apart in the source; their conditions may differ. Read-outs that look alike come from different tables or passages of the source. Where a SMILES comes first, the peptide text is derived from it. [ ]: non-standard residue; d: D form. The star is where a group is joined. Hexanoyl = CCCCCC(=O)*; Ahx = NCCCCCC(=O)O
# How the values were obtained:
# [1] = Blood-brain barrier penetrability study; assay type: in vivo, rat; settings: carotid infusion, 30 minutes
# Procedure: To evaluate the of ability dihexa to penetrate the BBB and accumulate in the brain rats were fitted with carotid cannulas and infused with 10 μCi of ^3H-dihexa and 2 μCi of ^14C inulin, a vascular space marker, in 100 μL of isotonic saline. Thirty minutes after infusion, brains were removed and dissected and blood samples taken. After solubilization, ^3H and ^14C were quantified by dual window scintillation counting to determine the amount of dihexa and inulin in brain and blood samples. The ratio of dihexa/inulin in blood was then used to account for any blood contamination in the various brain regions.
# hippocampal neurons = test: Growth factor deprivation of dissociated hippocampal neurons; assay type: cell-based; settings: starved 72 hrs +/− HGF 5 ng/ml and/or Dihexa
# Procedure: FIG. 46. […] Dissociated hippocampal neurons were starved for 72 hrs+/−HGF at sub-threshold concentrations 5 ng/ml and or Dihexa at 2 different concentrations 10^−8M and […]. (**p<0.001,*** p<0.0001; Mean+/−SEM).
# [2] = Blood stability in heparinized rat blood; assay type: in vitro ADME; settings: rat
# Procedure: At the end of each incubation, 20 μL of […]
# [3] = Dihexa pharmacokinetics in rats (IV, intraperitoneal); assay type: in vivo, rat
# Procedure: Ethics approval for animal experimentation was obtained from Washington State University.
# Dihexa solutions were prepared by suspending dry stock dihexa in DMSO at 1 mg/mL and subsequent serial dilutions in 50% DMSO or HPLC grade water for the final concentrations specified. Stock dihexa is kept in powder form and stored at −20° C. Quality control (QC) samples were prepared by spiking fresh rat plasma with an appropriate dilution of dihexa for the final concentration of dihexa specified, keeping a 10:1 ratio of plasma to dihexa solution (final DMSO concentration 5%). The compounds, Nle^1-Ang-IV and Nle-YI-(6) aminohexanoic amide, molecules very similar in structure and properties to dihexa, were used as internal standards and were prepared the same way.
# The proteins present in the plasma samples were precipitated using three volumes of ice-cold acetonitrile. Internal standards were then added and the samples were vortexed for approximately 10 seconds. Samples were then centrifuged at 5000 RPM for 5 minutes. The supernatants were transferred to new tubes and stored until use at −20° C. Samples were then concentrated to a volume of approximately 100 ul. 200 ul HPLC grade water was added to each sample and the samples were transferred to autosampler vials.
# Male Sprague Dawley rats were catheterized as described in the Animals and Surgical Procedures section. […] The typical injection volume was 200 μL yielding an initial estimated DMSO concentration in blood of 0.46%. After dosing, blood samples were collected as described in Table 7.
# The blood samples were collected into polypropylene microcentrifuge tubes and cooled on ice for not more than 1 hour. The samples were centrifuged at 5000 RPM for 7 minutes and 80 μL plasma were transferred into previously prepared tubes containing 240 μL ice-cold acetonitrile. The samples were vortexed vigorously for 30 seconds and held on ice. 100 μg/mL Nle-YI-(6) aminohexanoic amide in 10 μL was used as an internal standard and added to each sample on ice.
# 10 μL of each serial dilution was then added to 90 μL of blank plasma for final concentrations of 0.01, 0.02, 0.05, 0.1, 0.2, 1, 10, 20, 50 and 100 μg/mL. 80 μL of each plasma sample was transferred to previously prepared tubes containing 240 μL ice-cold acetonitrile and vortexed vigorously. 10 μL containing 100 μg/mL Nle-YI-(6) aminohexanoic amide as an internal standard, was added to each sample on ice. The standard curve plasma samples were then stored at −20° C. and further processed alongside the pharmacokinetic study samples according to the method described above.
# The analytical column that was used was n C18 (100 mm×2.1 mm). The mobile phase consisted of HPLC grade acetonitrile and water with 0.1% acetic acid. […] For MS analysis, a positive ion mode (SIM) was used to monitor the m/z of dihexa at […] (dihexa with the addition of a sodium adduct) and the m/z of Nle-YI-(6) aminohexanoic amide and Nle^1-AngIV (internal standards) at 513 and 541, respectively (both with sodium adducts). Samples were introduced using the autosampler and the injection volume was 50 ul. For the microsomal study, the m/z of verapamil was 455, the m/z of piroxicam was 332, and the m/z of 7-ethoxycoumarin was 191.
# Pharmacokinetic analysis was performed using data from individual rats from which the mean and standard error of the mean (SEM) were calculated for each group.
# [4] = male, Sprague-Dawley, rat, plasma, IV 10 mg/kg, rats, Mean ± SEM
smiles,measurement,setting,value
"CCCCCC(=O)N[C@@H](Cc1ccc(O)cc1)C(=O)N[C@H](C(=O)NCCCCCC(N)=O)[C@@H](C)CC [Dihexa, N-hexanoic-Tyr-Ile-(6)-aminohexanoic amide] (Hexanoyl-Tyr-Ile-[Ahx]-NH2)",average 3H/14C for blood,[1],1687
same,concentration of 3H-dihexa in brain regions (3H/14C ratio vs blood),[1]; 14C-inulin vascular marker,all the brain regions examined avidly concentrated dihexa
same,protection of neurons from growth factor deprivation,hippocampal neurons,act synergistically to protect neurons; also recorded: protects neurons from growth factor deprivation
same,stable in the blood,[2],over 5 hours
same,Cp0,"[3]; IV 10 mg/kg, rats, Mean ± SEM",87.3 ± 31.9 µg/mL
same,KE,"[3]; IV 10 mg/kg, rats, Mean ± SEM",0.00007 ± 0.00004 min⁻¹
same,half-life,"[3]; male, Sprague-Dawley, rat, plasma, ip, 20 mg/kg, delivered intraperitoneally, Mean+/−SEM, N=4, read-out: half-life (t1/2) (converted)",8.83 days
same,half-life,"[3]; male, Sprague-Dawley, rat, plasma, iv, 10 mg/kg, IV 10 mg/kg, rats, Mean ± SEM, read-out: t½",12.7 ± 5.41 days
same,half-life,"[3]; male, Sprague-Dawley, rat, plasma, iv, 10 mg/kg, IV administration 10 mg/kg, rats, read-out: half-life (t1/2) (converted)",12.7 days
same,Vd,[3]; [4],54.4 ± 14.8 L/kg
same,clearance,[3]; [4],2.6 ± 0.7 mL/min/kg
same,AUC(0-inf),"[3]; male, Sprague-Dawley, rat, plasma, IV 10 mg/kg, rats, Mean ± SEM, N = 3",74500 ng·h/mL
